Patent publication US20230150929A1, “SELECTIVE NON-CYCLIC NUCLEOTIDE ACTIVATORS FOR THE CAMP SENSOR EPAC1” (The Board of Regents of The University of Texas System, priority 2020, published 2023)

Legend:
PKA = PKA activation (VASP phosphorylation, western blot) in U2OS-EPAC1 cells; format: cell-based; settings: 100 µM test compound, FIG. 5
Description: FIG. 5. PKA activation results of representative newly discovered EPAC1 agonists. U2OS cells stably transfected with EPAC1 were treated with 100 µM of test compounds, cyclic nucleotide EPAC1 agonist 2 or 10 µM of forskolin and rolipram (F/R), cyclic AMP elevating agents, as a positive control. Active, phosphorylated VASP (P-VASP) was visualized using a phospho-specific, anti-VASP antibody. None of the test compounds promoted VASP phosphorylation in cells.
PKA and GPCR Selectivity. To investigate the EPAC selectivity of these EPAC agonists, compounds 25g, 25n and 25q were selected for further PKA activation studies, and the results are shown in FIG. 5. PKA activation was assessed by monitoring phosphorylation state of a downstream PKA effector, vasodilator-stimulated phosphoprotein (VASP).
(§1) SDS-PAGE and Western Blotting. Samples were prepared by mixing equal volumes of cell lysate and 2x SDS sample loading buffer and denaturing for 5 min at 95° C., unless indicated otherwise. Protein samples were separated by SDS-PAGE on 10% (v/v) polyacrylamide gels, for EPAC1 and VASP, or on 12.5% (v/v), for Rap1, and then transferred to nitrocellulose membranes. Membranes were then blocked for 1 h at room temperature in 5% (w/v) non-fat dry milk or 5% (w/v) BSA in Tris-buffered saline containing 0.1% (v/v) Tween 20, followed by an overnight incubation with primary antibody diluted in blocking buffer at 4° C. Subsequently, the membranes were incubated with appropriate horseradish peroxidase-conjugated secondary antibodies for 1 h at room temperature. For signal detection the SuperSignal West Pico PLUS Chemiluminescent Substrate (Thermo Scientific) was used. Images were acquired using the Fusion FX7 camera platform (Vilber). Densitometry was performed with ImageJ.

EPAC1 [1] = molecular target: T1, EPAC1 (Homo sapiens, UniProt O95398); test: In vitro GEF screen (EPAC1 activation assay); format: biochemical; parameters: expressed in transfected cells; host or cells: U2OS cells (from Professor Holger Rehmann, University of Utrecht); settings: 10 µM, FIG. 6
T1 sequence (O95398 1-923): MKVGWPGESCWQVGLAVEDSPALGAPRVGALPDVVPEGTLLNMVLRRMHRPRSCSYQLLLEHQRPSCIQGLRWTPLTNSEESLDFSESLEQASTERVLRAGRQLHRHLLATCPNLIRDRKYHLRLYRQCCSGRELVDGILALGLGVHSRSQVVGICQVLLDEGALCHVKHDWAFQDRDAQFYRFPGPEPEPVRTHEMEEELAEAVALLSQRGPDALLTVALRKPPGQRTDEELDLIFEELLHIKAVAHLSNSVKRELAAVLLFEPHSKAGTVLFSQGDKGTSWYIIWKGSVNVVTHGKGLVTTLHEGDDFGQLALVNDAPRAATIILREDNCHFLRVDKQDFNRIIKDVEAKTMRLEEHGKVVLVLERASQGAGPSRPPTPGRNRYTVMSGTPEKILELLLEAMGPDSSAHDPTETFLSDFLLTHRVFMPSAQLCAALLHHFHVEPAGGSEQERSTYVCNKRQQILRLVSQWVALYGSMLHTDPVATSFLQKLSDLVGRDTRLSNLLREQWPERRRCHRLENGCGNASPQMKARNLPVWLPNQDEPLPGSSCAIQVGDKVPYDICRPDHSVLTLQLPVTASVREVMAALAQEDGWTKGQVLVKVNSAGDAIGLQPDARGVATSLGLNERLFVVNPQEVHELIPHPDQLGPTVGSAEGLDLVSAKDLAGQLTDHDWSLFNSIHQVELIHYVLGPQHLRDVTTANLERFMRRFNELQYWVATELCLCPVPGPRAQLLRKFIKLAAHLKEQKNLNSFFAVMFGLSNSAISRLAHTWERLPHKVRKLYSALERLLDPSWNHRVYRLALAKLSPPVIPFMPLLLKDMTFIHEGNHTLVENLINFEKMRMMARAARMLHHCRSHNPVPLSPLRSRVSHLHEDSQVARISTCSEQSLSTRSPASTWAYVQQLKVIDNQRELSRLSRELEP
Description: FIGS. 6A-B. Identification of compounds including 25g (PW0381) 25q (PW0521) 25n (PW0577), 25u (PW0606), 25e (PW0624) and 25f (PW0625) as EPAC1 activators in an in vitro GEF screen. […] Selected compounds have been highlighted as indicated.
(§2) Series Expansion and EPAC1 vs EPAC2 Selectivity. GEF assay was used to further screen all newly synthesis analogues at 10 µM, to identify additional activating compounds to expand the series of EPAC1 agonists (FIG. 6). […] Having now identified an expanded exemplary series of compounds as potential EPAC1 activators the ability of 25e, 25f, 25g, 25n and 25u to activate EPAC1 and EPAC2 in cellular Rap1 activation assays (FIG. 7) were compared. For these U2OS cells transfected with either EPAC1 or EPAC2 (FIG. 7) was used. […] Densitometry was carried out on all immunoblots and the ratio of EPAC1 to EPAC2 activation was calculated and presented in a bar graph in FIG. 8.

EPAC1-CNBD = molecular target: T2, EPAC1-CNBD (Homo sapiens, UniProt O95398); test: 8-NBD-cAMP competition binding assay, EPAC1-CNBD; settings: for IC50 values as EPAC1 binders (in words): summary statement; for RFI (%) (relative fluorescence intensity), Table 4: compound 10 µM, EPAC1-CNBD 0.8 µM, 8-NBD-cAMP 62.5 nM, mean ± SEM, lower RFI = stronger binding
T2 sequence (O95398 169-318 isoform O95398-3): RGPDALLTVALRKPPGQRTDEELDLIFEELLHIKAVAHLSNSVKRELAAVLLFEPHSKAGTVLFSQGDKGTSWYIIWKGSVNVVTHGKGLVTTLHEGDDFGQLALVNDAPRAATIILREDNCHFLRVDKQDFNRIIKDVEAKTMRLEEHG

EPAC1 [2] = molecular target: T1, EPAC1; test: Active Rap1 pull-down in U2OS cells stably transfected with EPAC1; format: cell-based; parameters: expressed in transfected cells; host or cells: U2OS cells (from Professor Holger Rehmann, University of Utrecht); settings: for Rap1 activation in EPAC1 cells: U2OS-EPAC1, 100 µM compound, 10 min, FIG. 7; for selectivity: ability to activate EPAC1 over EPAC2 (ratio of EPAC1 to EPAC2 activation): densitometry of Rap1-GTP immunoblots, U2OS-EPAC1 vs U2OS-EPAC2, FIG. 8
Description: as §2
Active Rap1 Pull-down. U2OS cells (from Professor Holger Rehmann, University of Utrecht) stably transfected with EPAC1 or EPAC2 were cultured in 6-well plates in DMEM, high glucose, supplemented with 10% (v/v) FBS, 1% (v/v) GlutaMAX, 1% (v/v) Penicillin-Streptomycin and 2 mg/l puromycin (to ensure selection of stable transfectants). 80% confluent cells were starved in culture medium with reduced FBS concentration (0.5 %) for 16 h and then stimulated for 10 min with either vehicle, 100 µM of studied compounds, or 50 µM of 2 in case of U2OS-EPAC1 or 100 µM of compound 4 for U2OS-EPAC2. Cells were then rinsed with ice-cold PBS and lysed in 0.5 ml cell lysis buffer (Cell Signaling Technologies) supplemented with 10 mM MgCl2 and 1 mM PMSF, followed by clearing the lysates by centrifugation. Cell lysates were incubated for 1 h (4° C., gentle agitation) with 40 µg GST-RalGDS-RBD immobilized on Glutathione Sepharose 4B (GE Healthcare) to selectively capture GTP-bound Rap1. Later on, the glutathione resin was separated from supernatant by centrifugation, washed three times with cell lysis buffer, then resuspended in 2x SDS sample loading buffer and denatured for 5 min at 95° C.
as §1

SMILES	PKA activation (VASP phosphorylation) (PKA)	EPAC1 activity in GEF assay (EPAC1 [1])	IC50 values as EPAC1 binders (in words) (EPAC1-CNBD)	Rap1 activation in EPAC1 cells (EPAC1 [2])	selectivity: ability to activate EPAC1 over EPAC2 (ratio of EPAC1 to EPAC2 activation) (EPAC1 [2])	RFI (%) (relative fluorescence intensity), Table 4 (EPAC1-CNBD)
O=C(COc1ccc2ccccc2c1)NS(=O)(=O)c1ccc([N+](=O)[O-])c(F)c1 [Compound 25e, N-((3-Fluoro-4-nitrophenyl)sulfonyl)-2-(naphthalen-2-yloxy)acetamide]	unable to activate PKA	promote EPAC1 activity more effectively than 25g, 25n and 25q	low micromolar to sub-micromolar	roughly equivalent to the positive control	best selectivity	
Nc1ccc(S(=O)(=O)NC(=O)COc2ccc3ccccc3c2)cc1F [Compound 25f, N-((4-Amino-3-fluorophenyl)sulfonyl)-2-(naphthalen-2-yloxy)acetamide]	unable to activate PKA	promote EPAC1 activity more effectively than 25g, 25n and 25q	low micromolar to sub-micromolar		best selectivity	81 ± 8%
Cc1cc(Nc2ncccc2C(F)(F)F)cc(S(=O)(=O)NC(=O)COc2ccc3ccccc3c2)c1 [Compound 25u, N-((3-Methyl-5-((3-(trifluoromethyl)pyridin-2-yl)amino)phenyl)sulfonyl)-2-(naphthalen-2-yloxy)acetamide]	unable to activate PKA	promote EPAC1 activity more effectively than 25g, 25n and 25q	low micromolar to sub-micromolar	roughly equivalent to the positive control		56 ± 6%
